# Test results taken from patent US12338228B2, “NLRP3 modulators” (Innate Tumor Immunity, Inc., priority 2019, dated 2025).
# Target: T1, NLRP3 (Homo sapiens, UniProt Q96P20)
# T1 construct: host or cells: PMA-differentiated THP-1 cells
# Assay: Measurement of IL-1β production in PMA-differentiated THP-1 cells (NLRP3 hIL1β)
# Assay type: cell-based
# Procedure: Serial dilutions of compounds in DMSO were added to low volume 384 well plates at 100 nl/well using an ECHO 550 acoustic dispenser (Labcyte) to achieve final starting concentration of 10 μM in assay.
# THP-1 cells in RPMI (Gibco, 11875) media with 10% FBS at a density of 1×10^6 cell/ml in a T175 flask were treated with a final concentration of phorbol 12-myristate 13-acetate (PMA) (Sigma,P1585) of 50 ng/ml overnight at 37° C. at 5% CO2 for differentiation. Cells were harvested the next day after rinsing well with dPBS using 0.5% trypsin. A cell solution was prepared of 1×10^6 cells/ml for 50,000 cells in 50 μl/well in RPMI media with 2% FBS. Cells were plated using a multichannel pipette onto the compound dilutions in Greiner, 384 well, black clear bottom tissue culture treated plates (781090). The plates were incubated in 37° C. incubator at 5% CO2 for 2 hours.
# After the 2 hour incubation, the cell plates were spun in the centrifuge for 5 minutes at 1200 rpm. Using the Felix (CyBio), 8 μl of the supernatant was transferred to 384 well, low volume, white proxy plates. (Perkin Elmer, 6008230). A human IL1beta hTRF kit was used to analyze the supernatant (CISBIO, 62HIL1BPEG). The kit instructions were followed for preparing the IL1Beta standard curve and then the antibodies from the kit were diluted 1:40 rather than 1:20 as kit instructed. Once combined, the antibodies were added across the plates, 5 μl/well. The plates were sealed and incubated at 4° C. overnight. The plates were then read on the Perkin Elmer EnVision at 665/615 nm using the hTRF laser.
# T1 sequence (Q96P20 whole entry): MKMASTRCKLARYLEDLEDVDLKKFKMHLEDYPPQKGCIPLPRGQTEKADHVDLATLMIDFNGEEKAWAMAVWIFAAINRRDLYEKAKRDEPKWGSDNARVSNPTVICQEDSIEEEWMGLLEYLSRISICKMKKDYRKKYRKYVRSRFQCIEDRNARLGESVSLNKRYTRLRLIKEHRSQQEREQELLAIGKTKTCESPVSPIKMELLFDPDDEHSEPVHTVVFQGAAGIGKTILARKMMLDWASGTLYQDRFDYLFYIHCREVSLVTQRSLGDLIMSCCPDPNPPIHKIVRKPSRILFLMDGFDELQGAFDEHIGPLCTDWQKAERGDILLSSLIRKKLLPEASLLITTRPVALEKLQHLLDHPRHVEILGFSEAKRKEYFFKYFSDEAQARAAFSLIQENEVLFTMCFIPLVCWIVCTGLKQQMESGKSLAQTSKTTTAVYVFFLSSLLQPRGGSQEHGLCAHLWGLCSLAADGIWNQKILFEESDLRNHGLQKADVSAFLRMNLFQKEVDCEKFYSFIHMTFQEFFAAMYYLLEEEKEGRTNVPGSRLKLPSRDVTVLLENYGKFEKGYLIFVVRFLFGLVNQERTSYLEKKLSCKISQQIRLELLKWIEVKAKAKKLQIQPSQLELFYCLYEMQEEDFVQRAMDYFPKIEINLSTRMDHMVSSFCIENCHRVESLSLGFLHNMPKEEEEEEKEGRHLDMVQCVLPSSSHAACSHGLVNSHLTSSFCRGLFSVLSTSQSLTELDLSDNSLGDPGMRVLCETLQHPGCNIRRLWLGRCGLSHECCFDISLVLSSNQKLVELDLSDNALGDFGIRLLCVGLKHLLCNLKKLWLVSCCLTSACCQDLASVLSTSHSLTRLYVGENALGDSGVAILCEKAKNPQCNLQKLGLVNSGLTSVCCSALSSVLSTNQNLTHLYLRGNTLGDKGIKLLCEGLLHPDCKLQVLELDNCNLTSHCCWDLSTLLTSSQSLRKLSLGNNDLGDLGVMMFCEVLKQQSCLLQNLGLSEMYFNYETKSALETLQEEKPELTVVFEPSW
row,Compound,EC50
1,"Nc1cc(N[C@H]2CCOC2)c2c(F)cc(-c3cc[nH]n3)cc2n1 [Example 10, (S)-5-Fluoro-7-(1H-pyrazol-3-yl)-N4-(tetrahydrofuran-3-yl)quinoline-2,4-diamine]",850 nM
2,"Cc1c(N)nc2cc(-c3ccn[nH]3)ccc2c1NCCCO [Example 12, 3-((2-Amino-3-methyl-7-(1H-pyrazol-5-yl)quinolin-4-yl)amino)propan-1-ol]",2900 nM
3,"Cc1c(N)nc2cc(-c3ccn[nH]3)ccc2c1NCc1ccn[nH]1 [Example 13, N4-((1H-Pyrazol-5-yl)methyl)-3-methyl-7-(1H-pyrazol-5-yl)quinoline-2,4-diamine]",450 nM
4,"Nc1nc2cc(-c3cc[nH]n3)ccc2c(N[C@H]2CC[C@H](O)C2)c1F [Example 2, (1 S,3 S)-3-((2-Amino-3-fluoro-7-(1H-pyrazol-3-yl)quinolin-4-yl)amino)cyclopentan-1-ol]",600 nM
5,"Cc1cc(-c2cc[nH]n2)cc2nc(N)cc(NCc3cc[nH]n3)c12 [Example 6, N4-((1H-Pyrazol-3-yl)methyl)-5-methyl-7-(1H-pyrazol-3-yl)quinoline-2,4-diamine]",1400 nM
6,"Nc1nc2cc(-c3ccn[nH]3)ccc2c(NCc2ccccn2)c1C1CCCC1 [Example 15, 3-Cyclopentyl-7-(1H-pyrazol-5-yl)-N4-(pyridin-2-ylmethyl)quinoline-2,4-diamine]",440 nM
7,"Nc1cc(NCc2ccn[nH]2)c2ccc(-c3ccn[nH]3)c(F)c2n1 [Example 11, N4-((1H-Pyrazol-5-yl)methyl)-8-fluoro-7-(1H-pyrazol-5-yl)quinoline-2,4-diamine]",710 nM
8,"Cc1cc(-c2cc[nH]n2)cc2nc(N)cc(N[C@H]3CC[C@H](O)C3)c12 [Example 5, (1S,3S)-3-((2-Amino-5-methyl-7-(1H-pyrazol-3-yl)quinolin-4-yl)amino)cyclopentan-1-ol]",4000 nM
9,3-((2-Amino-3-cyclopentyl-7-(1H-pyrazol-5-yl)quinolin-4-yl)amino)propan-1-ol [Example 16],260 nM

# Now from value to compound:
row,EC50,Compound
1,350 nM,"Nc1nc2cc(-c3cc[nH]n3)ccc2c(NCCCO)c1Cl [Example 3, 3-((2-Amino-3-chloro-7-(1H-pyrazol-3-yl)quinolin-4-yl)amino)propan-1-ol]"
2,230 nM,"Nc1cc(N[C@H]2CC[C@H](O)C2)c2c(F)cc(-c3cc[nH]n3)cc2n1 [Example 8, (1S,3S)-3-((2-Amino-5-fluoro-7-(1H-pyrazol-3-yl)quinolin-4-yl)amino)cyclopentan-1-ol]"
3,160 nM,"Nc1nc2cc(-c3cc[nH]n3)ccc2c(NCCCO)c1F [Example 1, 3-((2-Amino-3-fluoro-7-(1H-pyrazol-3-yl)quinolin-4-yl)amino)propan-1-ol]"
4,230 nM,"Nc1cc(NCCCO)c2c(F)cc(-c3cc[nH]n3)cc2n1 [Example 7, 3-((2-Amino-5-fluoro-7-(1H-pyrazol-3-yl)quinolin-4-yl)amino)propan-1-ol]"
5,330 nM,"Nc1cc(NCCCO)c2ccc(-c3cc[nH]n3)c(F)c2n1 [Example 4, 3-((2-Amino-8-fluoro-7-(1H-pyrazol-3-yl)quinolin-4-yl)amino)propan-1-ol]"
6,290 nM,"Nc1cc(NCc2cc[nH]n2)c2c(F)cc(-c3cc[nH]n3)cc2n1 [Example 9, N4-((1H-Pyrazol-3-yl)methyl)-5-fluoro-7-(1H-pyrazol-3-yl)quinoline-2,4-diamine]"
7,260 nM,"Nc1nc2cc(-c3ccn[nH]3)ccc2c(NCCO)c1C1CCCC1 [Example 14, 2-((2-Amino-3-cyclopentyl-7-(1H-pyrazol-5-yl)quinolin-4-yl)amino)ethan-1-ol]"
